Reference: US10660333B2, “Substituted 2-heterocyclylimidazolylcarboxamides as pesticides” (BAYER CROPSCIENCE AKTIENGESELLSCHAFT, priority 2016, dated 2020)
Read-outs that look alike come from different tables or passages of the source.

What was measured:
Myzus persicae [1] = assay: Myzus persicae - drench test (MYZUPE D), savoy cabbage; format: in vivo; conditions: 10 dat; for Emax at 0.16 ppm / Emax at 0.8 ppm: Myzus persicae, soil, 240 h, read-out: % efficacy
Description: Myzus persicae—Drench Test (MYZUPE D)
To produce a suitable active ingredient formulation, 1 part by weight of active ingredient is mixed with the specified amounts of solvent and emulsifier, and the concentrate is diluted with water to the desired concentration, it being necessary to include the volume of soil which is drenched in the calculation. It should be ensured that a concentration of 40 ppm of emulsifier in the soil is not exceeded. To produce further test concentrations, water is used for dilution.
Savoy cabbage (Brassica oleracea) in pots with soil and infested by all stages of the green peach aphid (Myzus persicae) is watered with an active ingredient formulation of the desired concentration.
(§1) After the desired period of time, the efficacy in % is determined. 100% means that all the aphids have been killed; 0% means that no aphids have been killed.

Aphis gossypii = Aphis gossypii - spray test (APHIGO S), cotton plants; format: in vivo; conditions: 144 h, 6 dat, read-out: % efficacy
Description: Aphis gossypii—Spray Test (APHIGO S)
(§2) To produce a suitable active ingredient formulation, 1 part by weight of active ingredient is dissolved with the specified parts by weight of solvent and made up to the desired concentration with water containing an emulsifier concentration of 1000 ppm. To produce further test concentrations, the formulation is diluted with emulsifier-containing water. If the addition of ammonium salts or/and penetrants is required, these are each added in a concentration of 1000 ppm to the formulation solution.
Cotton plants (Gossypium hirsutum) heavily infested by the cotton aphid (Aphis gossypii) are sprayed with an active ingredient formulation of the desired concentration.
After the desired time, the kill in % is determined. 100% means that all the aphids have been killed; 0% means that no aphids have been killed.

Myzus persicae [2] = assay: Myzus persicae - spray test (MYZUPE S), bell pepper plants; format: in vivo; conditions: 6 dat; for Emax at 0.16 ppm / Emax at 0.8 ppm: Myzus persicae, 144 h, read-out: % efficacy
Description: Myzus persicae—Spray Test (MYZUPE S)
as §2
Bell pepper plants (Capsicum annuum) severely infested with the green peach aphid (Myzus persicae) are treated by spraying with the active ingredient formulation in the desired concentration.
After the desired time, the kill in % is determined. 100% means that all the animals have been killed; 0% means that no animals have been killed.

Myzus persicae [3] = assay: Myzus persicae - spray test (MYZUPE), comparison with prior art; format: in vivo; conditions: for Emax at 4 g/ha / Emax at 20 g/ha / Emax at 100 g/ha / Emax at 500 g/ha: Myzus persicae, read-out: % efficacy
Description: Myzus persicae—Spray Test (MYZUPE)
as §2, with “water.” for “water. If the addition of ammonium salts or/and penetrants is required, these are each added in a concentration of 1000 ppm to the formulation solution.”
(§3) Discs of Chinese cabbage leaves (Brassica pekinensis) infested by all stages of the green peach aphid (Myzus persicae) are sprayed with an active ingredient formulation of the desired concentration.
as §1

Myzus persicae [4] = assay: Myzus persicae - oral test (MYZUPE O), comparison with prior art; format: in vivo; conditions: 5 dat; for Emax at 0.8 ppm / Emax at 4 ppm: Myzus persicae, po, 120 h, read-out: % efficacy
Description: Myzus persicae—Oral Test (MYZUPE O)
(§4) To produce a suitable active ingredient formulation, 1 part by weight of active ingredient is dissolved with the specified parts by weight of solvent and made up to the desired concentration with water.
(§5) 50 μl of the active ingredient formulation are transferred into microtitre plates and made up to a final volume of 200 μl with 150 μl of IPL41 insect medium (33%+15% sugar). Subsequently, the plates are sealed with parafilm, which a mixed population of green peach aphids (Myzus persicae) within a second microtitre plate is able to puncture and imbibe the solution.
as §1

Myzus persicae [5] = assay: Myzus persicae - oral test; format: in vivo; conditions: 4 ppm, oral, after 5 days; for pest or weed control at 4 ppm: Myzus persicae, 120 h, read-out: efficacy (aphids killed)
Description: as §4, §5
(§6) After 5 days, the efficacy in % is determined. 100% means that all the aphids have been killed; 0% means that no aphids have been killed.

[6] = log P by HPLC on reversed-phase (C18) columns, OECD Guideline 117; format: physicochemical; conditions: for chromatographic logP: reversed-phase (C18) HPLC column
Myzus persicae [7] = assay: Myzus persicae - spray test; format: in vivo; conditions: 500 g/ha, Chinese cabbage leaf discs, after 5 days; for pest or weed control at 500 g/ha: Myzus persicae, foliar, 120 h, read-out: efficacy (aphids killed)
Description: Myzus persicae—Spray Test
as §2, with “water.” for “water. If the addition of ammonium salts or/and penetrants is required, these are each added in a concentration of 1000 ppm to the formulation solution.”
as §3, §6

[8] = 120 h, 4 g/ha (g of ai/ha), 5 dat
[9] = 120 h, 20 g/ha (g of ai/ha), 5 dat
[10] = 120 h, 100 g/ha (g of ai/ha), 5 dat
[11] = HPLC RP C18, acidic range pH 2.7, 0.1% formic acid/acetonitrile, read-out: logP[a]
[12] = HPLC RP C18, neutral range pH 7.8, ammonium hydrogencarbonate/acetonitrile, read-out: logP[n]
[13] = HPLC RP C18, acidic range pH 2.7, 0.1% formic acid/acetonitrile
[14] = HPLC RP C18, neutral range pH 7.8, ammonium hydrogencarbonate/acetonitrile

Compound | Emax at 0.16 ppm (Myzus persicae [1]; 0.16 ppm) | Emax at 0.8 ppm (Myzus persicae [1]; 0.8 ppm) | Emax at 0.16 ppm (Aphis gossypii) | Emax at 0.8 ppm (Aphis gossypii) | Emax at 0.16 ppm (Myzus persicae [2]; 0.16 ppm) | Emax at 0.8 ppm (Myzus persicae [2]; 0.8 ppm) | Emax at 0.8 ppm (Myzus persicae [4]; 0.8 ppm) | Emax at 4 ppm (Myzus persicae [4]; 4 ppm) | Emax at 20 g/ha (Myzus persicae [3]; [9]) | Emax at 100 g/ha (Myzus persicae [3]; [10]) | Emax at 500 g/ha (Myzus persicae [3]; 120 h, 500 g/ha, 5 dat) | also measured
CN(C(=O)c1cnc(-c2cc(-c3ccccc3)no2)n1C)c1cccnc1 [reference compound] | 0% | 0% | 0% | 0% | 0% | 0% | – | – | – | – | – | Emax at 4 g/ha (Myzus persicae [3]; 144 h, 4 g/ha, 6 dat): 0%; Emax at 20 g/ha (Myzus persicae [3]; 144 h, 20 g/ha, 6 dat): 0%
Cc1nc(C(=O)Nc2cccnc2)c[nH]1 [WO 2011/009804 (Ex. 14), reference compound] | – | – | – | – | – | – | 0% | 0% | 0% | 0% | – | Emax at 4 g/ha (Myzus persicae [3]; [8]): 0%
CCOC(=O)c1cc(-c2ncc(C(=O)N(C)c3cccnc3)n2C)on1 [reference compound] | – | – | – | – | – | – | 0% | 0% | 0% | 0% | 0% | Emax at 4 g/ha (Myzus persicae [3]; [8]): 0%
CN(C(=O)c1cnc(C2CC(c3ccccn3)=NO2)n1C)c1cccnc1 (centres unmarked) [Example I-1-26] | 95% | 98% | – | 100% | 100% | 100% | 100% | 100% | 90% | 90% | 90% | pest or weed control at 4 ppm (Myzus persicae [5]): 100%; chromatographic logP [6, 11]: 1.01; chromatographic logP [6, 12]: 1.27; pest or weed control at 500 g/ha (Myzus persicae [7]): 90%
Cc1ncc(C(=O)Nc2cccnc2)n1C [reference compound] | 0% | 0% | 0% | 0% | 0% | 30% | – | – | 0% | – | – | Emax at 4 g/ha (Myzus persicae [3]; [8]): 0%
CC1=NOC(c2ncc(C(=O)N(C)c3cccnc3)n2C)C1 (centres unmarked) [Example I-1-1] | 100% | 100% | 100% | 100% | 100% | 95% | 100% | 100% | 70% | 70% | 100% | pest or weed control at 4 ppm (Myzus persicae [5]): 100%; chromatographic logP [6, 11]: 0.27; chromatographic logP [6, 12]: 0.76; pest or weed control at 500 g/ha (Myzus persicae [7]): 100%; Emax at 4 g/ha (Myzus persicae [3]; [8]): 70%
CN(C(=O)c1cnc(C2CC(c3ccc(C(F)(F)F)cn3)=NO2)n1C)c1cccnc1 (centres unmarked) [Example I-1-36] | 70% | 80% | – | 97% | 90% | 99% | 100% | 100% | 90% | 90% | 100% | pest or weed control at 4 ppm (Myzus persicae [5]): 100%; chromatographic logP [6, 11]: 1.84; chromatographic logP [6, 12]: 1.97; pest or weed control at 500 g/ha (Myzus persicae [7]): 100%; Emax at 4 g/ha (Myzus persicae [3]; [8]): 100%
CCc1ncc(C(=O)N(C)c2cccnc2)n1C [reference compound] | 0% | – | 0% | 0% | 0% | – | – | – | – | – | – | –
CN(C(=O)c1cnc(C2CC=NO2)n1C)c1cccnc1 (centres unmarked) [Example I-1-30] | 95% | 95% | – | 80% | 95% | 100% | 100% | 90% | 70% | 70% | 90% | pest or weed control at 4 ppm (Myzus persicae [5]): 90%; chromatographic logP [6, 11]: 0.1; chromatographic logP [6, 12]: 0.57; pest or weed control at 500 g/ha (Myzus persicae [7]): 90%
Cc1ncc(C(=O)N(C)c2cccnc2)n1C [reference compound] | 30% | – | 0% | 0% | 0% | – | – | – | – | – | – | –
CC(C)C1=NOC(c2ncc(C(=O)N(C)c3cccnc3)n2C)C1 (centres unmarked) [Example I-1-3] | 95% | 100% | 70% | 100% | 99% | 100% | 100% | 100% | 70% | 90% | 100% | pest or weed control at 4 ppm (Myzus persicae [5]): 100%; chromatographic logP [6, 11]: 1.08; chromatographic logP [6, 12]: 1.34; pest or weed control at 500 g/ha (Myzus persicae [7]): 100%
CN(C(=O)c1cnc(C2CC(c3ccc(F)cc3)=NO2)n1C)c1cccnc1 (centres unmarked) [Example I-1-22] | – | – | – | – | – | – | – | – | – | – | – | % efficacy (Myzus persicae [1]; 0.16 ppm): 90%; % efficacy (Myzus persicae [1]; 0.8 ppm): 95%; % efficacy (Myzus persicae [4]; 0.8 ppm): 90%; % efficacy (Myzus persicae [4]; 4 ppm): 100%; % efficacy (Myzus persicae [2]; 0.16 ppm): 90%; % efficacy (Myzus persicae [2]; 0.8 ppm): 99%; efficacy (aphids killed) (Myzus persicae [5]): 100%; logP[a] ([6]; pH 2.7): 1.55; logP[n] ([6]; pH 7.8): 1.82; efficacy (aphids killed) (Myzus persicae [7]): 100%; % efficacy (Myzus persicae [3]; 4 g/ha (g of ai/ha), 5 dat): 90%; % efficacy (Myzus persicae [3]; 20 g/ha (g of ai/ha), 5 dat): 100%; % efficacy (Myzus persicae [3]; 100 g/ha (g of ai/ha), 5 dat): 100%; % efficacy (Myzus persicae [3]; 500 g/ha, 5 dat): 100%
O=C(Nc1cccnc1)c1c[nH]cn1 [WO 2011/009804 (Ex. 13), reference compound] | – | – | – | – | – | – | 0% | 0% | – | – | – | Emax at 4 g/ha (Myzus persicae [3]; 144 h, 4 g/ha, 6 dat): 0%; Emax at 20 g/ha (Myzus persicae [3]; 144 h, 20 g/ha, 6 dat): 0%; Emax at 100 g/ha (Myzus persicae [3]; 144 h, 100 g/ha, 6 dat): 0%
CN(C(=O)c1cnc(C2CC2)n1C)c1cccnc1 [reference compound] | – | – | 10% | 30% | 5% | – | – | – | – | – | – | –
Cc1ccc(C2=NOC(c3ncc(C(=O)N(C)c4cccnc4)n3C)C2)cc1 (centres unmarked) [Example I-1-21] | – | – | – | – | – | – | – | – | – | – | – | efficacy (aphids killed) (Myzus persicae [5]): 100%; logP[a] [6, 13]: 1.75; logP[n] [6, 14]: 1.95; efficacy (aphids killed) (Myzus persicae [7]): 100%
CN(C)C(=O)C1=NOC(c2ncc(C(=O)N(C)c3cccnc3)n2C)C1 (centres unmarked) [Example I-1-6] | – | – | – | – | – | – | – | – | – | – | – | efficacy (aphids killed) (Myzus persicae [5]): 100%; logP[a] [6, 13]: 0.77; logP[n] [6, 14]: 0.97; efficacy (aphids killed) (Myzus persicae [7]): 100%
CN(C(=O)c1cnc(C2CC(c3ccc(C#N)cc3)=NO2)n1C)c1cccnc1 (centres unmarked) [Example I-1-20] | – | – | – | – | – | – | – | – | – | – | – | efficacy (aphids killed) (Myzus persicae [5]): 100%; logP[a] [6, 13]: 1.42; logP[n] [6, 14]: 1.62; efficacy (aphids killed) (Myzus persicae [7]): 90%
